From patent US11413255B2, “Multifunctional cytoprotectant for treatment of pathogenic processes mediated by oxidative stress and toxic electrophiles” (Montefiore Medical Center, priority 2015, dated 2022)
Entries after “also recorded” stand apart in the source; their conditions may differ. Like-named read-outs stand apart in the source and are kept apart here.

Columns and labels:
APAP-intoxicated mice = conditions: for hepatoprotection in APAP-intoxicated mice, i. p. administration: i. p. 20 mins prior to APAP, THA 0.20-0.80, PG 0.40-2.40, 4-NAHA 0.04-0.08 mmol/kg; for hepatoprotection in APAP-intoxicated mice, oral administration: THA and PG 0.80-2.40, 4-NAHA 0.04-0.12, NAC 1.60-2.40 mmol/kg
Source text: Survival curves, THA and PG i. p. administration.
Survival curves, THA and PG oral administration.
Survival curves, 4-NAHA i. p. and oral administration.

[1] = tested on: raloxifene-exposed hepatocytes; experiment: Raloxifene-induced hepatocyte toxicity; conditions: for protection against raloxifene: at 150 μM
[2] = tested on: raloxifene-exposed hepatocytes
[3] = tested on: APAP-exposed isolated mouse liver cells (hepatocytes); experiment: Viability of APAP-exposed isolated mouse hepatocytes, graded protectant concentrations; assay type: cell-based; conditions: read-out: EC50 (cytoprotection)
mice [4] = tested on: mice
[5] = tested on: isolated hepatocytes exposed to graded APAP; experiment: Isolated hepatocytes, fixed protectant and graded APAP concentrations; assay type: cell-based, mouse
Source text: FIG. 8A-8B. […] Data are expressed as mean percent of control±SEM and *indicates p<0.05.

APAP-exposed hepatocytes = experiment: Hepatocyte rescue: protectant added 2 hrs after APAP; assay type: cell-based, mouse
[6] = pKa and % anion at physiological pH; conditions: for % in the carbanion / ionized nucleophilic state: physiological / cellular pH
[7] = Computational data on THA analogues: pKa and % anion; assay type: physicochemical
Source text: Computational Data on THA Analogues:

[8] = tested on: cell culture models of oxidative stress and electrophile (acrolein) toxicity; conditions: cited from earlier work
mice [9] = conditions: cited from earlier work
[10] = In chemico prevention of thiol (GSH) depletion by acrolein; assay type: biochemical; conditions: FIG. 2B
[11] = tested on: carbon tetrachloride-induced hepatotoxicity in mice; conditions: 0.032 mmol/kg p. o.; carbon tetrachloride 0.5 ml/kg i. p.; cited from earlier work
[12] = In chemico prevention of thiol (GSH) depletion by NAPQI; assay type: biochemical; conditions: FIG. 2A
[13] = 0.25 mM protectant, APAP 0.25-5.0 mM×4 hrs
[14] = 1.0 mM protectant, APAP 0.25-5.0 mM×4 hrs
[15] = 0.25 mM protectant, APAP 1.0 mM
[16] = 0.25 mM protectant, highest APAP concentration 5.0 mM

CC(=O)c1cc(O)c(C(C)=O)c(O)c1 [4-NAHA, 4-acetyl-2,6-dihydroxy acetophenone]
hepatoprotection (APAP-intoxicated mice; i. p. 0.04 mmol/kg): ineffective | hepatoprotection (APAP-intoxicated mice; i. p. 0.08 mmol/kg): significant hepatoprotection | hepatoprotection in APAP-intoxicated mice, i. p. administration (APAP-intoxicated mice): dose-dependent protection | hepatoprotection (APAP-intoxicated mice; oral 0.04 mmol/kg): ineffective | hepatoprotection (APAP-intoxicated mice; oral 0.12 mmol/kg, lethality significantly delayed): partially protective | hepatoprotection in APAP-intoxicated mice, oral administration (APAP-intoxicated mice): effective over a broader dose-range | protection against raloxifene [1]: fully protective | relative ability to prevent raloxifene-induced hepatocyte toxicity [2]: superior protection | EC50 ([3]; APAP 1.0 mM, 4 hrs, protectant 0.010-5.0 mM): 6 µM | delayed toxicity (mice [4]; all doses tested, 7 days): did not cause delayed toxicity | acute toxicity (mice [4]; doses 0.04-0.12 mmol/kg): not acutely toxic

O=C(c1ccc(OCCN2CCCCC2)cc1)c1c(-c2ccc(O)cc2)sc2cc(O)ccc12 [raloxifene, reference compound]
concentration producing hepatocyte toxicity ([1]; raloxifene exposure): 75 µM

CC(=O)N[C@@H](CS)C(=O)O [NAC, N-acetyl cysteine]
hepatoprotection in APAP-intoxicated mice, oral administration (APAP-intoxicated mice): effective APAP antidote only when administered orally | protection against raloxifene [1]: partial protection | EC50 ([3]; Mus musculus, Hepatocyte, 4 h): ~1000 µM | cytoprotection (viability) [5, 13]: neither 2-ACP nor NAC provided cytoprotection beyond the lowest APAP concentration | toxicity measures (ALT appearance, mitochondrial membrane potential) ([5]; 1.0 mM protectant): return toward normalization of the toxicity indices | cytoprotection (viability) [5, 14]: partial cytoprotection | effect on viability, protectant added 2 hrs post-APAP (APAP-exposed hepatocytes; [15]): ineffective | effect on viability, protectant added 2 hrs post-APAP (APAP-exposed hepatocytes; 1.0 mM protectant): truncated the rapid decline in viability | effect on viability, protectant added 2 hrs post-APAP (APAP-exposed hepatocytes; 5 mM protectant, APAP 1.0 mM): promoted recovery of APAP-exposed hepatocytes | % Anion (pH 7.4) [6]: 0.80%

O=C(CCc1ccc(O)cc1)c1c(O)cc(O)cc1O [drawing 21]
% Anion (pH = 7.4) [7]: 56%

O=C(CCc1ccc(O)cc1)c1c(O)cc(O)cc1O [Phloretin, phloretin]
hepatoprotection (APAP-intoxicated mice; i. p. 0.200 mmol/kg, APAP 500 mg/kg p. o.): marginal hepatoprotection | effect of higher concentrations ([8]; above the protective range): cytotoxic | concentrations giving significant cytoprotection ([8]; several cell culture models): 100 to 250 µM | lethality when administered alone (mice [4]; 0.40-2.40 mmol/kg, administered alone): associated with lethality | % Anion (pH 7.4) [6]: 55.0%

Oc1cc(O)cc(O)c1 [PG, 1,3,5-trihydroxybenzene]
EC50 ([3]; Mus musculus, Hepatocyte, 4 h): ~90 µM | cytoprotection (viability) [5, 13]: fully protective up to the 1.0 mM APAP concentration | cytoprotection (viability) [5, 16]: only partial cytoprotection | cytoprotection (viability) [5, 14]: full hepatocyte protection irrespective of APAP concentration | effect on viability, protectant added 2 hrs post-APAP (APAP-exposed hepatocytes; [15]): arrested the progression of APAP-induced toxicity | effect on viability, protectant added 2 hrs post-APAP (APAP-exposed hepatocytes; 1.0 mM protectant): complete restoration of viability | % Anion (pH 7.4) [6]: 7.40% | % in the carbanion / ionized nucleophilic state [6]: 7% | pKa (physchem): 8.45

CC(=O)c1c(O)cc(O)cc1O [THA, 2′,4′,6′-trihydroxyacetophenone]
hepatoprotection in APAP-intoxicated mice, i. p. administration (APAP-intoxicated mice): dose-dependent (0.20-0.80 mmol/kg) hepatoprotection | hepatoprotection in APAP-intoxicated mice, oral administration (APAP-intoxicated mice): dose-dependent hepatoprotection; also recorded: dose-dependent protection | relative ability to prevent raloxifene-induced hepatocyte toxicity ([1]; FIG. 10 legend): superior protection | protection against raloxifene [1]: fully protective | oral LD50 mice (mice [9]): 3.20 gm/kg | prevention of acrolein-induced thiol (GSH) depletion [10]: better thiol protection than PG | EC50 ([3]; Mus musculus, Hepatocyte, 4 h): ~90 µM | cytoprotection (viability) [5, 13]: fully protective up to the 1.0 mM APAP concentration | cytoprotection (viability) [5, 16]: preserved cell viability | toxicity measures (ALT appearance, mitochondrial membrane potential) ([5]; 1.0 mM protectant): normal | cytoprotection (viability) [5, 14]: full hepatocyte protection irrespective of APAP concentration | prevention of carbon tetrachloride-induced hepatotoxicity [11]: completely prevent | effect on viability, protectant added 2 hrs post-APAP (APAP-exposed hepatocytes; [15]): partial recovery of viability | effect on viability, protectant added 2 hrs post-APAP (APAP-exposed hepatocytes; 1.0 mM protectant): complete restoration of viability | lethality associated with the i. p. doses (mice [4]; i. p. doses of FIG. 3): No lethality | prevention of NAPQI-induced thiol (GSH) depletion [12]: better thiol protection than PG; also recorded: better protection against NAPQI-induced GSH loss | pKa [6]: 7.7 | % Anion (pH 7.4) [6]: 33.0% | % in the carbanion / ionized nucleophilic state [6]: approximately 33% | pKa (physchem): 7.75

CC(=O)C1CCCC1=O (stereo not drawn) [2-ACP, 2-acetylcyclopentanone]
protection against raloxifene [1]: partial protection | prevention of acrolein-induced thiol (GSH) depletion [10]: better GSH protection from acrolein than THA or PG | EC50 ([3]; Mus musculus, Hepatocyte, 4 h): ~1000 µM | cytoprotection (viability) [5, 13]: neither 2-ACP nor NAC provided cytoprotection beyond the lowest APAP concentration | toxicity measures (ALT appearance, mitochondrial membrane potential) ([5]; 1.0 mM protectant): return toward normalization of the toxicity indices | cytoprotection (viability) [5, 14]: partial cytoprotection | effect on viability, protectant added 2 hrs post-APAP (APAP-exposed hepatocytes; [15]): ineffective | effect on viability, protectant added 2 hrs post-APAP (APAP-exposed hepatocytes; 1.0 mM protectant): truncated the rapid decline in viability | effect on viability, protectant added 2 hrs post-APAP (APAP-exposed hepatocytes; 5 mM protectant, APAP 1.0 mM): promoted recovery of APAP-exposed hepatocytes | % Anion (pH 7.4) [6]: 28.0%

Oc1cc(O)cc(O)c1 [drawing 24]
% Anion (pH = 7.4) [7]: 07% | pKa ([7]; values without * (not estimates)): 8.5
